In patent US20180154142A1, “METHODS AND DEVICES FOR TREATMENT OF TUMORS WITH NANO-PULSE STIMULATION” (Old Dominion University Research Foundation, priority 2016, published 2018):

Tests used:
4T1 cells [1] = assay: cell surface calreticulin (CRT) on treated 4T1 cells, flow cytometry; format: cell-based, mouse; conditions: mitoxantrone 1 μM positive control; change from 4 hours to 24 hours following treatment; FIG. 18A
Procedure: (§1) Cells then were placed in a 6 well plate for 1 hour or 20 hours. Cells with media but no NPS treatment served as negative control and a known ICD inducer, mitoxantrone (1 μM) was added to cells as a positive control. Cell surface-exposed CRT was measured by flow cytometry (FACSAria). Extracellular ATP concentrations were quantified by the luciferase/luciferin-based ATP determination Kit (A22066, Thermo-Fisher). The amount of HMGB1 in the supernatant was determined by HMGB1 ELISA Kit (MBS722248, MyBioSource).

4T1 cells [2] = assay: extracellular ATP release from treated 4T1 cells, luciferase/luciferin-based ATP determination kit; format: cell-based, mouse; conditions: mitoxantrone 1 μM positive control; change from 4 hours to 24 hours following treatment; FIG. 18B
Procedure: as §1

With O=C1c2c(O)ccc(O)c2C(=O)c2c(NCCNCCO)ccc(NCCNCCO)c21 [MXT, mitoxantrone] the “levels of calreticulin, mean fluorescence intensity (MFI)” value (4T1 cells [1]) was “largest increase” and the “levels of ATP release in the supernatants” value (4T1 cells [2]) was “increases”.
